From patent publication US20240424111A1, “Degrader Compounds and Uses Thereof” (CALICO LIFE SCIENCES LLC, priority 2021, published 2024)

What was measured:
PTPN2 [1] = molecular target: T1, PTPN2 (Mus musculus, UniProt Q06180); test: HiBiT PTPN2 degradation in B16F10.4 cells, 24 hours; format: cell-based
T1 construct: HiBiT; host or cells: B16F10.4
T1 sequence (Q06180 1-406): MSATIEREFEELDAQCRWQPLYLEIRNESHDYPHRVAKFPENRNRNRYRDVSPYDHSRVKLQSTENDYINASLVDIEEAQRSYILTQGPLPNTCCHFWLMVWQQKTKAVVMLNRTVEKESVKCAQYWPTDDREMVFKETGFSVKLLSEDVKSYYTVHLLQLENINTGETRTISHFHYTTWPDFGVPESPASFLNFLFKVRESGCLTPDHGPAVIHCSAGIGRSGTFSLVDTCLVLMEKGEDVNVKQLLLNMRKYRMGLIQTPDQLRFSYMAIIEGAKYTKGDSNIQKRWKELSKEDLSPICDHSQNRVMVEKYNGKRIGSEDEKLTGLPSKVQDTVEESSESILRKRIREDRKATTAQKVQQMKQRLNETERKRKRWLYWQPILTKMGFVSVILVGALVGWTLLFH
Protocol: (§1) PTPN2 degradation was determined based on quantification of luminescent signal using Nano-Glo® HiBiT Lytic Assay kit. Test compounds were added to the 384-well plate from a top concentration of 10 μM with 11 points, half log titration in duplicates. 293T. 109 cells were added into 384-well plates at a cell density of 5000 cells per well. The plates were kept at 37° C. with 5% CO2 for 24 hours. The cells treated in the absence of the test compound were the negative control and the cells without Nano-Glo® HiBiT Lytic reagent were the positive control. After 24-hour incubation, Nano-Glo® HiBiT Lytic Assay reagents were added to the cells. Luminescence was acquired on EnVision™ Multilabel Reader (PerkinElmer, Santa Clara, CA, USA).

PTPN2 [2] = molecular target: T2, PTPN2 (Homo sapiens, UniProt P17706); test: HiBiT PTPN2 degradation in 293T.109 (HiBiT-PTPN2) cells, 24 hours; format: cell-based; conditions: 293T.109 cells
T2 construct: expressed in transfected cells; host or cells: 293T.109 (HiBiT-PTPN2), derived from 293T WT (ATCC)
T2 sequence (P17706 1-415): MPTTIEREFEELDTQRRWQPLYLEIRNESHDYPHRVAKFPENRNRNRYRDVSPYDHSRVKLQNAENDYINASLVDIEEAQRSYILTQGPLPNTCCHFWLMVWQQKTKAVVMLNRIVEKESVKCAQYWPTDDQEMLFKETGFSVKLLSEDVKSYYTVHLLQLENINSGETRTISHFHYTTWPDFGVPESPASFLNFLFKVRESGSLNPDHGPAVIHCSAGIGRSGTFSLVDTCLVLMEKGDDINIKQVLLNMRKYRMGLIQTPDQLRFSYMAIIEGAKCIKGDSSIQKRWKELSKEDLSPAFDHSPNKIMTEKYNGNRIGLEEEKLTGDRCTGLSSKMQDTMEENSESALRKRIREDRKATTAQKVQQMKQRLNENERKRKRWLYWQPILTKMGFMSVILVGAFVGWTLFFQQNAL
Description: Dulbecco's modified Eagle medium (DMEM) without phenol red and fetal bovine serum (FBS) were purchased from Gibco (Grand Island, NY, USA). Nano-Glo® HiBiT Lytic Assay System was purchased from Promega (Medison, WI, USA). 293T. 109 (HiBiT-PTPN2) cell line was generated by ectopically expressing PTPN2 with N-terminal HiBiT fusion tag in 293T WT cell line purchased from ATCC (Manassas, VA, USA). Cell culture flasks and 384-well microplates were acquired from VWR (Radnor, PA, USA).
PTPN2 Degradation Analysis
as §1

DC50 (PTPN2 [1]) [µM] | DC50 (PTPN2 [2]) [µM] | SMILES
0.15 to 0.5 | 0.15 to 0.5 | Cn1c(=O)n(C2CCC(=O)NC2=O)c2ccc(-c3ccc(CC(=O)Nc4ccc5c(F)c(N6CC(=O)NS6(=O)=O)c(O)cc5c4)cc3)c(F)c21 (centres unmarked) [Degrader 40]
0.05 to 0.15 | < 0.05 | Cn1nc(C2CCC(=O)NC2=O)c2ccc(Nc3ccc(CC(=O)Nc4ccc5c(F)c(N6CC(=O)NS6(=O)=O)c(O)cc5c4)cc3F)cc21 (centres unmarked) [Degrader 41]
0.05 to 0.15 | 0.05 to 0.15 | Cn1c(=O)n(C2CCC(=O)NC2=O)c2ccc(Nc3cnn(CC(=O)Nc4ccc5c(F)c(N6CC(=O)NS6(=O)=O)c(O)cc5c4)c3)cc21 (centres unmarked) [Degrader 42]
0.15 to 0.5 | < 0.05 | Cn1c(=O)n(C2CCC(=O)NC2=O)c2cc(F)c(N3CCC(CC(=O)Nc4ccc5c(F)c(N6CC(=O)NS6(=O)=O)c(O)cc5c4)CC3)cc21 (centres unmarked) [Degrader 43]
0.15 to 0.5 | 0.15 to 0.5 | Cn1c(=O)n(C2CCC(=O)NC2=O)c2cc(F)c(-c3ccc(CC(=O)Nc4ccc5c(F)c(N6CC(=O)NS6(=O)=O)c(O)cc5c4)cc3)cc21 (centres unmarked) [Degrader 44]
0.15 to 0.5 | 0.15 to 0.5 | COCCn1c(=O)n(C2CCC(=O)NC2=O)c2ccc(-c3ccc(CC(=O)Nc4ccc5c(F)c(N6CC(=O)NS6(=O)=O)c(O)cc5c4)cc3)cc21 (centres unmarked) [Degrader 45]
0.15 to 0.5 | 0.05 to 0.15 | Cn1c(=O)n(C2CCC(=O)NC2=O)c2ccc(N3CCC(CC(=O)Nc4ccc5c(F)c(N6CC(=O)NS6(=O)=O)c(O)cc5c4)CC3)c(F)c21 (centres unmarked) [Degrader 46]
< 0.05 | 0.05 to 0.15 | CCn1c(=O)n(C2CCC(=O)NC2=O)c2ccc(-c3ccc(CC(=O)Nc4ccc5c(F)c(N6CC(=O)NS6(=O)=O)c(O)cc5c4)cc3F)cc21 (centres unmarked) [Degrader 47]
0.05 to 0.15 | 0.05 to 0.15 | Cn1nc(C2CCC(=O)NC2=O)c2ccc(Nc3ccc(CC(=O)Nc4ccc5c(F)c(N6CC(=O)NS6(=O)=O)c(O)cc5c4)cc3)cc21 (centres unmarked) [Degrader 48]
0.05 to 0.15 | 0.05 to 0.15 | CCn1c(=O)n(C2CCC(=O)NC2=O)c2ccc(-c3ccc(CC(=O)Nc4ccc5c(F)c(N6CC(=O)NS6(=O)=O)c(O)cc5c4)cc3)cc21 (centres unmarked) [Degrader 49]
0.15 to 0.5 | 0.05 to 0.15 | Cn1c(=O)n(C2CCC(=O)NC2=O)c2ccc(C3CC4CCC(C3)N4CC(=O)Nc3ccc4c(F)c(N5CC(=O)NS5(=O)=O)c(O)cc4c3)cc21 (centres unmarked) [Degrader 50]
0.15 to 0.5 | 0.05 to 0.15 | Cn1c(=O)n(C2CCC(=O)NC2=O)c2ccc(C3CC4CCC(C3)N4CC(=O)Nc3ccc4c(F)c(N5CC(=O)NS5(=O)=O)c(O)cc4c3)cc21 (centres unmarked) [Degrader 51]
0.05 to 0.15 | < 0.05 | Cn1c(=O)n(C2CCC(=O)NC2=O)c2ccc(C3CCN(CCNC(=O)Nc4ccc5c(F)c(N6CC(=O)NS6(=O)=O)c(O)cc5c4)CC3)cc21 (centres unmarked) [Degrader 52]
< 0.05 | < 0.05 | O=C1CCC(N2C(=O)c3cccc4c(N5CCC(CCNC(=O)Nc6ccc7c(F)c(N8CC(=O)NS8(=O)=O)c(O)cc7c6)CC5)ccc2c34)C(=O)N1 (centres unmarked) [Degrader 53]
≥ 0.5 | 0.15 to 0.5 | O=C(CCC(=O)Nc1ccc2c(F)c(N3CC(=O)NS3(=O)=O)c(O)cc2c1)NCc1ccc2c3c(cccc13)C(=O)N2C1CCC(=O)NC1=O (centres unmarked) [Degrader 54]
0.15 to 0.5 | 0.05 to 0.15 | Cn1c(=O)n(C2CCC(=O)NC2=O)c2cc(F)c(N3CCN(CC(=O)Nc4ccc5c(F)c(N6CC(=O)NS6(=O)=O)c(O)cc5c4)CC3)cc21 (centres unmarked) [Degrader 55]
0.05 to 0.15 | 0.15 to 0.5 | Cn1c(=O)n(C2CCC(=O)NC2=O)c2ccc(-c3ccc(CC(=O)Nc4ccc5c(F)c(N6CC(=O)NS6(=O)=O)c(O)cc5c4)cc3F)c(F)c21 (centres unmarked) [Degrader 56]
0.15 to 0.5 | 0.05 to 0.15 | Cn1c(=O)n(C2CCC(=O)NC2=O)c2ccc(N3CCN(CC(=O)Nc4ccc5c(F)c(N6CC(=O)NS6(=O)=O)c(O)cc5c4)CC3)c(F)c21 (centres unmarked) [Degrader 57]
0.15 to 0.5 | < 0.05 | Cn1c(=O)n(C2CCC(=O)NC2=O)c2cc(F)c(N3CCC(CCNC(=O)Nc4ccc5c(F)c(N6CC(=O)NS6(=O)=O)c(O)cc5c4)CC3)cc21 (centres unmarked) [Degrader 58]
